Data as given in ChEMBL document CHEMBL3352619, “Design, synthesis and biological evaluation of novel 6,7-disubstituted-4-phenoxyquinoline derivatives bearing 4-oxo-3,4-dihydrophthalazine-1-carboxamide moieties as c-Met kinase inhibitors” (Bioorg Med Chem, 2014).

Assays:
[1] = Cytotoxicity against human H460 cells after 72 hrs by MTT assay; settings: NCI-H460, 72 h
[2] = Cytotoxicity against human MKN45 cells after 72 hrs by MTT assay; settings: MKN-45, 72 h
[3] = system: HT-29; test: Cytotoxicity against human HT-29 cells after 72 hrs by MTT assay; settings: HT-29, 72 h
[4] = system: MDA-MB-231; test: cells; settings: Homo sapiens, MDA-MB-231, 72 h
Description: Cytotoxicity against human MDA-MB-231 cells after 72 hrs by MTT assay

[5] = biological target: Hepatocyte growth factor receptor (Homo sapiens, UniProt P08581); test: Inhibition of c-Met (unknown origin) after 30 mins using poly (Glu,Tyr)4:1 substrate
[6] = biological target: Mast/stem cell growth factor receptor Kit (Homo sapiens, UniProt P10721); test: Inhibition of c-KIT (unknown origin) after 30 mins using poly (Glu,Tyr)4:1 substrate
[7] = biological target: T1, Receptor-type tyrosine-protein kinase FLT3 (Homo sapiens, UniProt P36888); test: Inhibition of FLT3 (unknown origin) after 30 mins using poly (Glu,Tyr)4:1 substrate
T1 sequence (P36888 whole entry): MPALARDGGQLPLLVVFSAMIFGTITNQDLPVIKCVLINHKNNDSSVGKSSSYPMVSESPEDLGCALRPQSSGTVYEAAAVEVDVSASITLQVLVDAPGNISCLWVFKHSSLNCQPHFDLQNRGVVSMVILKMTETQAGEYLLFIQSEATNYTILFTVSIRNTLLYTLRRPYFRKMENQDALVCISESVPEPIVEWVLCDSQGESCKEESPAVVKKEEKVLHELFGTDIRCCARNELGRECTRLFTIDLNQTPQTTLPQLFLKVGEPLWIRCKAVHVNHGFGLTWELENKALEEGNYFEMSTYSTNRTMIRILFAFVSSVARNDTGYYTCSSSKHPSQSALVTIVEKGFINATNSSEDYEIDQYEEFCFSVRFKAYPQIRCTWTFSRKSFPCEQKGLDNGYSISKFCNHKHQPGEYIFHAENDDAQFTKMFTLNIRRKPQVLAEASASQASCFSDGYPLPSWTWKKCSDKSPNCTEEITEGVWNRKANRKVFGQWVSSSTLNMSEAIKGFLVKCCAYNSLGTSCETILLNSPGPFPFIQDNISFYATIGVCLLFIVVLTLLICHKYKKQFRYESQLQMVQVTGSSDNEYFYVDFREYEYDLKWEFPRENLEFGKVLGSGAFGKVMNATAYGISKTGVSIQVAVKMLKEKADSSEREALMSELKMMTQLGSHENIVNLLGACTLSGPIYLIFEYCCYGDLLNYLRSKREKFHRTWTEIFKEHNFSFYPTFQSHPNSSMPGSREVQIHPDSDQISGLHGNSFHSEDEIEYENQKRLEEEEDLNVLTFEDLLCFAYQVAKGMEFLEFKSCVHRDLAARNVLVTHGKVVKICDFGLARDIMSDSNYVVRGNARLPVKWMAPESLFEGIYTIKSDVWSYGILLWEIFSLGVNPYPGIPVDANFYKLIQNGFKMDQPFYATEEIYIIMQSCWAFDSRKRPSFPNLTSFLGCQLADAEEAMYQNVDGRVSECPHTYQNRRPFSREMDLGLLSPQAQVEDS

[8] = biological target: Platelet-derived growth factor receptor alpha (Homo sapiens, UniProt P16234); test: Inhibition of PDGFRalpha (unknown origin) after 30 mins using poly (Glu,Tyr)4:1 substrate
[9] = biological target: Vascular endothelial growth factor receptor 2 (Homo sapiens, UniProt P35968); test: Inhibition of VEGFR2 (unknown origin) after 30 mins using poly (Glu,Tyr)4:1 substrate
[10] = biological target: Epidermal growth factor receptor (Homo sapiens, UniProt P00533); test: Inhibition of EGFR (unknown origin) after 30 mins using poly (Glu,Tyr)4:1 substrate
Epidermal growth factor receptor, sequence (P00533 whole entry): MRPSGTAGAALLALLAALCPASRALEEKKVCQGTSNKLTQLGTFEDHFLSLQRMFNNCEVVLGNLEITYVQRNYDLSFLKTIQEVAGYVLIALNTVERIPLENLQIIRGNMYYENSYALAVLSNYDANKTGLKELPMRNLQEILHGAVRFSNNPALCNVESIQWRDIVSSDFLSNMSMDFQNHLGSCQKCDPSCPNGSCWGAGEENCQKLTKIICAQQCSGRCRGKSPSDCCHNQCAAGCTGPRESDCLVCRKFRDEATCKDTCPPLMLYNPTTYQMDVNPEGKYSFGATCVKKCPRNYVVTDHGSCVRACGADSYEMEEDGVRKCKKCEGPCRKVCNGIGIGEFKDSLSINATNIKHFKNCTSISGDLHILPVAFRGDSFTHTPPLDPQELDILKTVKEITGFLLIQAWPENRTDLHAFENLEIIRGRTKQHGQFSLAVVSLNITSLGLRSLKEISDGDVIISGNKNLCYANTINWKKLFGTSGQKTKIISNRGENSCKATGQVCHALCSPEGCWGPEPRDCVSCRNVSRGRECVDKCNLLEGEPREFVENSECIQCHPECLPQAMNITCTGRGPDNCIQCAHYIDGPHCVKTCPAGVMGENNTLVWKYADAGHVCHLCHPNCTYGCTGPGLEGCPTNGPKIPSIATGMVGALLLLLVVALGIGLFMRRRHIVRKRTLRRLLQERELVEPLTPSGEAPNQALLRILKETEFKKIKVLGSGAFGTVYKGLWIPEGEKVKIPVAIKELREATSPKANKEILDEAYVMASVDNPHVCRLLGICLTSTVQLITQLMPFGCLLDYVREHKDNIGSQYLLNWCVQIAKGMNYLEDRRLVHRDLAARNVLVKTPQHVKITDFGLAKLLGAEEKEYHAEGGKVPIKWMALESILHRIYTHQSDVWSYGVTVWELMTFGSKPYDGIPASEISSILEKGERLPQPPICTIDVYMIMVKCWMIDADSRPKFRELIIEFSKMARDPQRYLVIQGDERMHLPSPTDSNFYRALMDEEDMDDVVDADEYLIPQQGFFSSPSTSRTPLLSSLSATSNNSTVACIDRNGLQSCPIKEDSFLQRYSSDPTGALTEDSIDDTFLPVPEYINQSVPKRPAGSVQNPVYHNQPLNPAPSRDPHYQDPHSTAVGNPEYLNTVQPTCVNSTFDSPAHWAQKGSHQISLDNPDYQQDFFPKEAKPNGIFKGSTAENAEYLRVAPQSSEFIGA

Hepatocyte growth factor receptor, sequence (P08581 whole entry): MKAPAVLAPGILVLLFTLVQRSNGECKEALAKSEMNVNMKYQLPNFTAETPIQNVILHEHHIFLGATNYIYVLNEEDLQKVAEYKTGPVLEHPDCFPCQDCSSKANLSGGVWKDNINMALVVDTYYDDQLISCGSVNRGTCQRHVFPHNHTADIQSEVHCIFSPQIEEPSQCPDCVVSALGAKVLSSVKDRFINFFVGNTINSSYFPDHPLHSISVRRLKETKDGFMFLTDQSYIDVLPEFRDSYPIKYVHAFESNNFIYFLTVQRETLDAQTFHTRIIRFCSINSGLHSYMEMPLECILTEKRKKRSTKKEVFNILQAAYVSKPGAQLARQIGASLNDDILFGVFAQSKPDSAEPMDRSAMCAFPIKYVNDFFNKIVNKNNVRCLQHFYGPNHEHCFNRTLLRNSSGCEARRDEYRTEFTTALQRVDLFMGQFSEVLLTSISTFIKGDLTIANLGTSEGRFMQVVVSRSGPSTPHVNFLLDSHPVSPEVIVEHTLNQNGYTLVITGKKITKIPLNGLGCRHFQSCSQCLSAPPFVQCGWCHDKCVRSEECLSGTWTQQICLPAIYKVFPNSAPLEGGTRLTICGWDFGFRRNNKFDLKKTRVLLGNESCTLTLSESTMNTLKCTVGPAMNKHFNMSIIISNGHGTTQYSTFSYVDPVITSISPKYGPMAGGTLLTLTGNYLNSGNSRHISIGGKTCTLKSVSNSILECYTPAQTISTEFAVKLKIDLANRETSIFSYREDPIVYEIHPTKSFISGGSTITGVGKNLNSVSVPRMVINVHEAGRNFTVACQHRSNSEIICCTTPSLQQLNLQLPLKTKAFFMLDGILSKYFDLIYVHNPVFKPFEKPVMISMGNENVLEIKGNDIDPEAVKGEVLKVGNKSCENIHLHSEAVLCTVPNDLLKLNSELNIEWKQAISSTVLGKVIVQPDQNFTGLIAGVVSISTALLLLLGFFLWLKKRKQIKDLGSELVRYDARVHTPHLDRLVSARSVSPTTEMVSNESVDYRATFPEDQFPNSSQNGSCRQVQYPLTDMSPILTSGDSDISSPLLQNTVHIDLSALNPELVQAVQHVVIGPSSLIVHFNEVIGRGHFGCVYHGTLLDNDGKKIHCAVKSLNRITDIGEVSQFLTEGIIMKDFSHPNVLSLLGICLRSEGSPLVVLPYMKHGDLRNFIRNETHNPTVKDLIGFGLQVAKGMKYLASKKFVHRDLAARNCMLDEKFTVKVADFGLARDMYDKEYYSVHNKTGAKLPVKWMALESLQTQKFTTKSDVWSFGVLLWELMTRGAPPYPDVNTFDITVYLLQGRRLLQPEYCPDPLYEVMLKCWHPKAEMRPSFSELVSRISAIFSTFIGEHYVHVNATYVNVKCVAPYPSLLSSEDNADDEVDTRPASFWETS
Platelet-derived growth factor receptor alpha, sequence (P16234 whole entry): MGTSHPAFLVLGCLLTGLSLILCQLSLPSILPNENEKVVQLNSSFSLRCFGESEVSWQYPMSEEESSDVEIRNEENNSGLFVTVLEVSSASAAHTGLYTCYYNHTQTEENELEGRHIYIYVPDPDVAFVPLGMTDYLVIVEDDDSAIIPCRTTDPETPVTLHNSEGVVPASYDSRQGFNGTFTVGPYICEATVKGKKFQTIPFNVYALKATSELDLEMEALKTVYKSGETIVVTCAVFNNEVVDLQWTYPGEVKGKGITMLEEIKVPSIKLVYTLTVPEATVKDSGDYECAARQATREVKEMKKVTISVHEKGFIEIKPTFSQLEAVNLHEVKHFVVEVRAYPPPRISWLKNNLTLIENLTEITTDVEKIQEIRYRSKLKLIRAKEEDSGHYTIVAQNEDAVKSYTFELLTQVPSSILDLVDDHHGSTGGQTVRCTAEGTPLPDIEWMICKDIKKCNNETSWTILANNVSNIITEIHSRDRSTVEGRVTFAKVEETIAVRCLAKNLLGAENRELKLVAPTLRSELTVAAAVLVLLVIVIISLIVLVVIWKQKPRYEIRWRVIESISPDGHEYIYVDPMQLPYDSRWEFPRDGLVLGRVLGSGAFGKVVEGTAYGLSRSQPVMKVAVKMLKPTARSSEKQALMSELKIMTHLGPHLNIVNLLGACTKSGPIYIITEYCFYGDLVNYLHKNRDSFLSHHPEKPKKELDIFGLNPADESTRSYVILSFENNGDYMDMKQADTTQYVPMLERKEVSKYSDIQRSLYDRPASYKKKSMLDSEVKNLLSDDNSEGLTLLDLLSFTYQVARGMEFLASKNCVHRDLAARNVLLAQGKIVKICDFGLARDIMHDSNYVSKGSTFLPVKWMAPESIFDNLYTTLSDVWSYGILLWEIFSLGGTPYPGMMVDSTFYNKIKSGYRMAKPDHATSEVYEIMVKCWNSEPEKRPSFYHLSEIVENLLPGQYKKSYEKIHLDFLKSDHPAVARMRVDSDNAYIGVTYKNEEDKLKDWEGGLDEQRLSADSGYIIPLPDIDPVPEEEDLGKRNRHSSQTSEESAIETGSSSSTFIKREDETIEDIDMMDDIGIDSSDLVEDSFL
Vascular endothelial growth factor receptor 2, sequence (P35968 whole entry): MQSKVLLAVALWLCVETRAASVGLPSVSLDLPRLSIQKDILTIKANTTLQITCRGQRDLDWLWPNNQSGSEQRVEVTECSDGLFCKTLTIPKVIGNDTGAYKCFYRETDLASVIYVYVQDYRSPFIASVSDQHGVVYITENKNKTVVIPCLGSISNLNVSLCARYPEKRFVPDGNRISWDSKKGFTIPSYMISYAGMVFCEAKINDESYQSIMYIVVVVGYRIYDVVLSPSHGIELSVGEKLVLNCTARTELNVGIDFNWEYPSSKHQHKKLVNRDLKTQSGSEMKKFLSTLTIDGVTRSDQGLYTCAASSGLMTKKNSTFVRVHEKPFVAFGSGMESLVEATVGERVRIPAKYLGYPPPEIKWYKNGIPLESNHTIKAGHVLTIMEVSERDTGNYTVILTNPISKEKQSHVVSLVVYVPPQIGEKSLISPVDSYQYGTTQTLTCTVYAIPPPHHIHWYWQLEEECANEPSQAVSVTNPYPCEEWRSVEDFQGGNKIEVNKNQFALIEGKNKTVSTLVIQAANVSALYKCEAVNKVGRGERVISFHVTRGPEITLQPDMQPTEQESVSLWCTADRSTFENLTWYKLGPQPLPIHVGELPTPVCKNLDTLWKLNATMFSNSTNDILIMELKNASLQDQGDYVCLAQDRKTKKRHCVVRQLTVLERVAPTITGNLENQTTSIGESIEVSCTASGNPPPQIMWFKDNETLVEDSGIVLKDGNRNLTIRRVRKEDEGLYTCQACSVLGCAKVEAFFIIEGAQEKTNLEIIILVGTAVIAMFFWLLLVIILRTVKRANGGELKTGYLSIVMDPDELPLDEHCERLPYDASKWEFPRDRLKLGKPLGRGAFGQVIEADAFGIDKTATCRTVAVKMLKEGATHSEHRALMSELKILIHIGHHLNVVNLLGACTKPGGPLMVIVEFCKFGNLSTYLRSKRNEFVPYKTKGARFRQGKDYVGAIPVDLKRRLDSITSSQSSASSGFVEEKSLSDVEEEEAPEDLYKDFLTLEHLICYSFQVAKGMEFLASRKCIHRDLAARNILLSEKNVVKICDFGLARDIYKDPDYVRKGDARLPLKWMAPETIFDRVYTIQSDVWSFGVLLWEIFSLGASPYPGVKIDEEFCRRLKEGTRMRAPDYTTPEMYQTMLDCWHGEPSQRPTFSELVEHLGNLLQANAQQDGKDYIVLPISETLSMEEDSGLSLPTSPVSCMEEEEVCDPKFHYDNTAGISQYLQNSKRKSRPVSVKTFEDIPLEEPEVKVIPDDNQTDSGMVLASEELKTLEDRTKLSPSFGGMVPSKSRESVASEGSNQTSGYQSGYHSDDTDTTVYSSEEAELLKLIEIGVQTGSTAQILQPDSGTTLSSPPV

SMILES | IC50 [1] | IC50 [2] | IC50 [3] | IC50 [4] | IC50 [5] | IC50 [6] | IC50 [7] | IC50 [8] | IC50 [9] | IC50 [10]
COc1cc2c(Oc3ccc(NC(=O)c4nn(-c5ccc([N+](=O)[O-])cc5)c(=O)c5ccccc45)cc3F)ccnc2cc1OCCCN1CCCC1 | 1240 nM | 1620 nM | 1760 nM | 2980 nM | – | – | – | – | – | –
COc1cc2c(Oc3ccc(NC(=O)c4nn(-c5ccc(F)cc5)c(=O)c5ccccc45)cc3F)ccnc2cc1OCCCN1CCCC1 | 55 nM | 71 nM | 130 nM | 430 nM | 1.63 nM | 2.17 nM | 3.49 nM | 15.7 nM | 70.4 nM | > 10000 nM
COc1cc2c(Oc3ccc(NC(=O)c4nn(-c5ccc([N+](=O)[O-])cc5)c(=O)c5ccccc45)cc3F)ccnc2cc1OCCCN1CCOCC1 | 1890 nM | 1940 nM | 2520 nM | 3480 nM | – | – | – | – | – | –
COc1cc2c(Oc3ccc(NC(=O)c4nn(-c5ccc(Br)cc5)c(=O)c5ccccc45)cc3F)ccnc2cc1OCCCN1CCCC1 | 180 nM | 230 nM | 670 nM | 1160 nM | – | – | – | – | – | –
COc1cc2c(Oc3ccc(NC(=O)c4nn(-c5ccc(F)cc5)c(=O)c5ccccc45)cc3F)ccnc2cc1OCCCN1CCC(C)CC1 | 110 nM | 130 nM | 330 nM | 660 nM | – | – | – | – | – | –
COc1cc2c(Oc3ccc(NC(=O)c4nn(-c5ccc(F)cc5)c(=O)c5ccccc45)cc3F)ccnc2cc1OCCCN1CCN(C)CC1 | – | 150 nM | 320 nM | – | – | – | – | – | – | –
COc1cc2c(Oc3ccc(NC(=O)c4nn(-c5ccccc5Br)c(=O)c5ccccc45)cc3F)ccnc2cc1OCCCN1CCC(C)CC1 | 390 nM | 510 nM | 950 nM | 1240 nM | – | – | – | – | – | –
COc1cc2c(Oc3ccc(NC(=O)c4nn(-c5ccccc5)c(=O)c5ccccc45)cc3F)ccnc2cc1OCCCN1CCN(C)CC1 | 450 nM | 620 nM | 1140 nM | 1580 nM | – | – | – | – | – | –
COc1cc2c(Oc3ccc(NC(=O)c4nn(-c5ccccc5)c(=O)c5ccccc45)cc3F)ccnc2cc1OCCCN1CCCCC1 | 650 nM | 590 nM | 1310 nM | 1880 nM | – | – | – | – | – | –
COc1ccc(-n2nc(C(=O)Nc3ccc(Oc4ccnc5cc(OCCCN6CCOCC6)c(OC)cc45)c(F)c3)c3ccccc3c2=O)cc1 | 1240 nM | 1620 nM | 3360 nM | 3980 nM | – | – | – | – | – | –
COc1cc2c(Oc3ccc(NC(=O)c4nn(-c5cccc(F)c5)c(=O)c5ccccc45)cc3F)ccnc2cc1OCCCN1CCC(C)CC1 | 190 nM | 220 nM | 500 nM | 860 nM | – | – | – | – | – | –
COc1cc2c(Oc3ccc(NC(=O)c4nn(-c5ccccc5Br)c(=O)c5ccccc45)cc3F)ccnc2cc1OCCCN1CCOCC1 | 370 nM | 450 nM | 680 nM | 1560 nM | – | – | – | – | – | –
COc1cc2c(Oc3ccc(NC(=O)c4nn(-c5ccccc5Br)c(=O)c5ccccc45)cc3F)ccnc2cc1OCCCN1CCCC1 | 320 nM | 410 nM | 850 nM | 1020 nM | – | – | – | – | – | –
COc1cc2c(Oc3ccc(NC(=O)c4nn(-c5ccccc5F)c(=O)c5ccccc45)cc3F)ccnc2cc1OCCCN1CCOCC1 | 190 nM | 150 nM | 470 nM | 700 nM | – | – | – | – | – | –
COc1cc2c(Oc3ccc(NC(=O)c4nn(-c5ccccc5F)c(=O)c5ccccc45)cc3F)ccnc2cc1OCCCN1CCC(C)CC1 | 200 nM | 260 nM | 510 nM | 670 nM | – | – | – | – | – | –
COc1cc2c(Oc3ccc(NC(=O)c4nn(-c5ccccc5)c(=O)c5ccccc45)cc3F)ccnc2cc1OCCCN1CCC(C)CC1 | 550 nM | 580 nM | 1040 nM | 1480 nM | – | – | – | – | – | –
COc1ccc(-n2nc(C(=O)Nc3ccc(Oc4ccnc5cc(OCCCN6CCCC6)c(OC)cc45)c(F)c3)c3ccccc3c2=O)cc1 | 1650 nM | 1320 nM | 2360 nM | 3450 nM | – | – | – | – | – | –
COc1cc2c(Oc3ccc(NC(=O)c4nn(-c5ccc(Br)cc5)c(=O)c5ccccc45)cc3F)ccnc2cc1OCCCN1CCN(C)CC1 | 250 nM | 350 nM | 850 nM | 1370 nM | – | – | – | – | – | –

SMILES | IC50 [1] | IC50 [2] | IC50 [3] | IC50 [4] | IC50 [5] | IC50 [6] | IC50 [7] | IC50 [8] | IC50 [9] | IC50 [10]
COc1ccc(-n2nc(C(=O)Nc3ccc(Oc4ccnc5cc(OCCCN6CCCCC6)c(OC)cc45)c(F)c3)c3ccccc3c2=O)cc1 | 840 nM | 950 nM | 1450 nM | 2010 nM | – | – | – | – | – | –
COc1cc2c(Oc3ccc(NC(=O)c4nn(-c5ccc([N+](=O)[O-])cc5)c(=O)c5ccccc45)cc3F)ccnc2cc1OCCCN1CCCCC1 | 1300 nM | 1140 nM | 2170 nM | 2620 nM | – | – | – | – | – | –
COc1cc2c(Oc3ccc(NC(=O)c4nn(-c5cccc(F)c5)c(=O)c5ccccc45)cc3F)ccnc2cc1OCCCN1CCCC1 | – | 160 nM | 460 nM | – | – | – | – | – | – | –
COc1cc2c(Oc3ccc(NC(=O)c4nn(-c5ccc([N+](=O)[O-])cc5)c(=O)c5ccccc45)cc3F)ccnc2cc1OCCCN1CCC(C)CC1 | 1340 nM | 1150 nM | 2450 nM | 4010 nM | – | – | – | – | – | –
COc1cc2c(Oc3ccc(NC(=O)c4nn(-c5ccccc5F)c(=O)c5ccccc45)cc3F)ccnc2cc1OCCCN1CCCC1 | – | 140 nM | 400 nM | – | – | – | – | – | – | –
COc1ccc(-n2nc(C(=O)Nc3ccc(Oc4ccnc5cc(OCCCN6CCN(C)CC6)c(OC)cc45)c(F)c3)c3ccccc3c2=O)cc1 | 1110 nM | 1320 nM | 3700 nM | 3980 nM | – | – | – | – | – | –
COc1cc2c(Oc3ccc(NC(=O)c4nn(-c5ccc(Br)cc5)c(=O)c5ccccc45)cc3F)ccnc2cc1OCCCN1CCC(C)CC1 | 350 nM | 330 nM | 920 nM | 1160 nM | – | – | – | – | – | –
COc1cc2c(Oc3ccc(NC(=O)c4nn(-c5ccccc5Br)c(=O)c5ccccc45)cc3F)ccnc2cc1OCCCN1CCN(C)CC1 | 290 nM | 400 nM | 1190 nM | 1680 nM | – | – | – | – | – | –
COc1cc2c(Oc3ccc(NC(=O)c4nn(-c5ccccc5)c(=O)c5ccccc45)cc3F)ccnc2cc1OCCCN1CCOCC1 | 580 nM | 430 nM | 1380 nM | 1230 nM | – | – | – | – | – | –
COc1cc2c(Oc3ccc(NC(=O)c4nn(-c5ccc([N+](=O)[O-])cc5)c(=O)c5ccccc45)cc3F)ccnc2cc1OCCCN1CCN(C)CC1 | 980 nM | 1320 nM | 2560 nM | 3490 nM | – | – | – | – | – | –
COc1cc2c(Oc3ccc(NC(=O)c4nn(-c5ccccc5)c(=O)c5ccccc45)cc3F)ccnc2cc1OCCCN1CCCC1 | – | 530 nM | 980 nM | – | – | – | – | – | – | –
COc1cc2c(Oc3ccc(NC(=O)c4nn(-c5ccc(Br)cc5)c(=O)c5ccccc45)cc3F)ccnc2cc1OCCCN1CCOCC1 | 290 nM | 340 nM | 710 nM | 960 nM | – | – | – | – | – | –
COc1cc2c(Oc3ccc(NC(=O)c4nn(-c5ccc(F)cc5)c(=O)c5ccccc45)cc3F)ccnc2cc1OCCCN1CCOCC1 | 100 nM | 90 nM | 260 nM | 670 nM | – | – | – | – | – | –
COc1cc2c(Oc3ccc(NC(=O)c4nn(-c5ccc(Br)cc5)c(=O)c5ccccc45)cc3F)ccnc2cc1OCCCN1CCCCC1 | 410 nM | 500 nM | 770 nM | 1130 nM | – | – | – | – | – | –
COc1cc2c(Oc3ccc(NC(=O)c4nn(-c5ccccc5F)c(=O)c5ccccc45)cc3F)ccnc2cc1OCCCN1CCCCC1 | 160 nM | 350 nM | 630 nM | 910 nM | – | – | – | – | – | –
COc1cc2c(Oc3ccc(NC(=O)c4nn(-c5ccc(F)cc5)c(=O)c5ccccc45)cc3F)ccnc2cc1OCCCN1CCCCC1 | – | 180 nM | 290 nM | – | – | – | – | – | – | –
COc1cc2c(Oc3ccc(NC(=O)c4nn(-c5ccccc5F)c(=O)c5ccccc45)cc3F)ccnc2cc1OCCCN1CCN(C)CC1 | 230 nM | 210 nM | 480 nM | 1050 nM | – | – | – | – | – | –
